Patent US8802664B2 (Bioproject, priority 2010, dated 2014)

molecular target: T1, human H4 receptor (Homo sapiens, UniProt Q9H3N8); test: [3H]Histamine binding on membranes of CHO cells stably expressing human H4 receptor; settings: not given
T1 construct: expressed in transfected cells
Procedure, shortened: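 Filter-bound counts (liquid scintillation) gave H4 binding. Incubation used 20 μg membrane protein/well in Tris/HCl 50 mM plus EDTA 0.5 mM at pH 7.4, and 10 μM JNJ 7777120 set nonspecific binding. Filtration on GF/B pretreated with polyethyleneimine stopped the reaction.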

T1 sequence (Q9H3N8 whole entry): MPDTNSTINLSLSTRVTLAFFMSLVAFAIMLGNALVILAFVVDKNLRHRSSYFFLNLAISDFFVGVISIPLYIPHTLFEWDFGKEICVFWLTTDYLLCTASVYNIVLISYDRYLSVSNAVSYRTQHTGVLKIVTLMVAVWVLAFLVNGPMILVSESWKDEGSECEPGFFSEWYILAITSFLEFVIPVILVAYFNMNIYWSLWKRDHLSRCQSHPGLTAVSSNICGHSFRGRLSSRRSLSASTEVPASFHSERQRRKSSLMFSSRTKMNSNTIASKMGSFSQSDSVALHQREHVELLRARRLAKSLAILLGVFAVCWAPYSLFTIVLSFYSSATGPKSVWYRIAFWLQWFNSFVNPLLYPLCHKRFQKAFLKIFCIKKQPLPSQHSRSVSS

SMILES	Ki or IC50 activity class [nM]
CN1CCC(OC(c2cccc(N3CC(O)C3)c2)c2nc3ccccc3s2)CC1 (centres unmarked) [Example 403, 1-{3-[benzothiazol-2-yl(1-methylpiperidin-4-yloxy)methyl]phenyl}azetidin-3-ol]	< 300
CN1CCC(OC(c2nc3ccccc3s2)c2cc(OC(F)(F)F)ccc2F)CC1 (centres unmarked) [Example 526]	< 30
CC(C)NC(=S)NCCSc1cccc(C(OC2CCN(C)CC2)c2nc3ccccc3[nH]2)c1 (centres unmarked) [Example 347, 1-(2-{3-[(1H-benzimidazol-2-yl)(1-methylpiperidin-4-yloxy)methyl]phenylsulfanyl}ethyl)-3-isopropylthiourea]	< 1000
CN1CCC(NC(c2cccc(OCCF)c2)c2nc3ccccc3[nH]2)CC1 (centres unmarked) [Example 180, {(1H-benzimidazol-2-yl)[3-(2-fluoro-ethoxy)phenyl]methyl}(1-methylpiperidin-4-yl)amine]	< 30
Cc1cc(F)cc(C(OC2CCN(C)CC2)c2nc3ccccc3s2)c1 (centres unmarked) [Example 38, 2-[(3-fluoro-5-methylphenyl)(1-methylpiperidin-4-yloxy)methyl]benzothiazole]	< 300
CN1CCC(OC(c2cccs2)c2nc3ccccc3s2)CC1 (centres unmarked) [Example 13, 2-[(1-methylpiperidin-4-yloxy)thiophen-2-ylmethyl]benzothiazole]	< 300
CN1CCC(OC(c2cccc(N3CCC(O)C3)c2)c2nc3ccccc3s2)CC1 (centres unmarked) [Example 406, 1-{3-[benzothiazol-2-yl(1-methylpiperidin-4-yloxy)methyl]phenyl}pyrrolidin-3-ol]	< 30
CN1CCC(OC(c2cccc(SCC=CCN)c2)c2nc3ccccc3[nH]2)CC1 (centres unmarked) [Example 473]	< 30
CN1CCC(OC(c2nc3ccccc3[nH]2)c2cc(Cl)ccc2F)CC1 (centres unmarked) [Example 496]	< 300
CN1CCC(NC(c2cccc(Br)c2)c2nc3ccccc3[nH]2)CC1 (centres unmarked) [Example 64, [(1H-benzimidazol-2-yl)(3-bromophenyl)methyl](1-methylpiperidin-4-yl)amine]	< 1000
CN1CCC(NC(c2cccc(SCc3ccccc3)c2)c2nc3ccccc3[nH]2)CC1 (centres unmarked) [Example 104, [(1H-benzimidazol-2-yl)(3-benzylsulfanylphenyl)methyl](1-methylpiperidin-4-yl)amine]	< 30
CN1CCC(OC(c2cccc(CCc3cn(C)cn3)c2)c2nc3ccccc3s2)CC1 (centres unmarked) [Example 306, 2-[{3-[2-(1-methyl-1H-imidazol-4-yl)ethyl]phenyl}(1-methylpiperidin-4-yloxy)methyl]benzothiazole]	< 300
CN1CCC(NC(c2cccc(OCc3cccc(F)c3)c2)c2nc3ccccc3[nH]2)CC1 (centres unmarked) [Example 105, {(1H-benzimidazol-2-yl)[3-(3-fluorobenzyloxy)phenyl]methyl}(1-methylpiperidin-4-yl)amine]	< 30
CN1CCC(OC(c2cccc(SCCn3nccn3)c2)c2nc3ccccc3s2)CC1 (centres unmarked) [Example 240, 2-{(1-methylpiperidin-4-yloxy)[3-(2-[1,2,3]triazol-2-yl-ethylsulfanyl)phenyl]methyl}benzothiazole]	< 300
CN1CCC(OC(c2cccc(N3CC4CC(F)CC4C3)c2)c2nc3ccccc3s2)CC1 (centres unmarked) [Example 492]	< 1000
CN1CCC(OC(c2cccc(SCCCCCN)c2)c2nc3ccccc3[nH]2)CC1 (centres unmarked) [Example 381, 5-{3-[(1H-benzimidazol-2-yl)(1-methylpiperidin-4-yloxy)methyl]phenylsulfanyl}pentylamine]	< 30
COc1cccc(C(NC2CCN(C)CC2)c2nc3ccccc3s2)c1 (centres unmarked) [Example 25, [benzothiazol-2-yl(3-methoxyphenyl)methyl](1-methylpiperidin-4-yl)amine]	< 30
CN1CCC(OC(c2cccc(SCCCCO)c2)c2nc3ccccc3[nH]2)CC1 (centres unmarked) [Example 248, 4-{3-[(1H-benzimidazol-2-yl)(1-methylpiperidin-4-yloxy)methyl]phenylsulfanyl}butan-1-ol]	< 300
COc1ccc(F)c(C(OC2CCN(C)CC2)c2nc3ccccc3[nH]2)c1 (centres unmarked) [Example 486]	< 30
CN1CCC(OC(c2cccc(OCc3cccc(F)c3)c2)c2nc3ccccc3s2)CC1 (centres unmarked) [Example 171, 2-[[3-(3-fluorobenzyloxy)phenyl](1-methylpiperidin-4-yloxy)methyl]benzothiazole]	< 30
CN1CCC(OC(c2cccc(OCCCCCN)c2)c2nc3ccccc3[nH]2)CC1 (centres unmarked) [Example 400, 5-{3-[(1H-benzimidazol-2-yl)(1-methylpiperidin-4-yloxy)methyl]phenoxy}pentylamine]	< 30

SMILES	Ki or IC50 activity class [nM]
CN1CCC(COC(c2cccc(Br)c2)c2nc3ccccc3s2)C1 (centres unmarked) [Example 465]	< 30
C=CCOc1cccc(C(NC2CCN(C)CC2)c2nc3ccccc3[nH]2)c1 (centres unmarked) [Example 112, [(3-allyloxyphenyl)(1H-benzimidazol-2-yl)methyl](1-methylpiperidin-4-yl)amine]	< 1000
CN1CCC(OC(c2cccc(N3CC4CC(N)CC4C3)c2)c2nc3ccccc3s2)CC1 (centres unmarked) [Example 471]	< 300
CN1CCC(OC(c2cccc(-c3ccccc3)c2)c2nc3ccccc3[nH]2)CC1 (centres unmarked) [Example 81, 2-[biphenyl-3-yl(1-methylpiperidin-4-yloxy)methyl]-1H-benzimidazole]	< 300
CSCCOc1cccc(C(OC2CCN(C)CC2)c2nc3ccccc3s2)c1 (centres unmarked) [Example 250, 2-{(1-methylpiperidin-4-yloxy)[3-(2-methylsulfanyl-ethoxy)phenyl]methyl}benzothiazole]	< 300
COc1cccc(COc2cccc(C(OC3CCN(C)CC3)c3nc4ccccc4s3)c2)c1 (centres unmarked) [Example 185, 2-[[3-(3-methoxybenzyloxy)phenyl](1-methylpiperidin-4-yloxy)methyl]benzothiazole]	< 30
CN1CCC(OC(c2cccc(-c3ccc(NC(=O)OC(C)(C)C)cc3)c2)c2nc3ccccc3s2)CC1 (centres unmarked) [Example 143, {3′-[benzothiazol-2-yl(1-methylpiperidin-4-yloxy)methyl]biphenyl-4-yl}carbamic acid tert-butyl ester]	< 300
CN1CCC(OC(c2cccc(OC3CC4CNCC4C3)c2)c2nc3ccccc3s2)CC1 (centres unmarked) [Example 466]	< 30
CN1CCC(OC(c2ccc(F)cc2)c2nc3ccccc3s2)CC1 (centres unmarked) [Example 3, 2-[(4-fluorophenyl)(1-methylpiperidin-4-yloxy)methyl]benzothiazole]	< 300
CN1CCC(OC(c2cccc(SCCO)c2)c2nc3ccccc3[nH]2)CC1 (centres unmarked) [Example 157, 2-{3-[(1H-benzimidazol-2-yl)(1-methylpiperidin-4-yloxy)methyl]phenylsulfanyl}ethanol]	< 300
CN1CCC(NC(c2cccc(Oc3ccccc3)c2)c2nc3ccccc3[nH]2)CC1 (centres unmarked) [Example 85, [(1H-benzimidazol-2-yl)(3-phenoxyphenyl)methyl](1-methylpiperidin-4-yl)amine]	< 300
CN1CCC(OC(c2cc(F)cc(F)c2)c2nc3ccccc3s2)CC1 (centres unmarked) [Example 15, 2-[(3,5-difluorophenyl)(1-methyl-piperidin-4-yloxy)methyl]benzothiazole]	< 300
CN1CCC(OC(c2cccc(OCC3CCCN(C)C3)c2)c2nc3ccccc3s2)CC1 (centres unmarked) [Example 379, 2-[[3-(1-methylpiperidin-3-ylmethoxy)phenyl](1-methylpiperidin-4-yloxy)methyl]benzothiazole]	< 1000
CN1CCC(OC(c2cccc(OCc3cccc(C(F)(F)F)c3)c2)c2nc3ccccc3s2)CC1 (centres unmarked) [Example 187, 2-{(1-methylpiperidin-4-yloxy)[3-(3-trifluoromethyl-benzyloxy)phenyl]methyl}benzothiazole]	< 30
CN1CCC(OC(c2cccc(-c3ccccc3Cl)c2)c2nc3ccccc3[nH]2)CC1 (centres unmarked) [Example 121, 2-[(2′-Chlorobiphenyl-3-yl)(1-methylpiperidin-4-yloxy)methyl]-1H-benzimidazole]	< 300
CN1CCC(OC(c2cccc(C#CCCNC(=N)N)c2)c2nc3ccccc3s2)CC1 (centres unmarked) [Example 372, N-(4-{3-[benzothiazol-2-yl(1-methylpiperidin-4-yloxy)methyl]phenyl}but-3-ynyl)guanidine]	< 30
COc1cccc(COc2cccc(C(NC3CCN(C)CC3)c3nc4ccccc4[nH]3)c2)c1 (centres unmarked) [Example 125, {(1H-benzimidazol-2-yl)[3-(3-methoxybenzyloxy)phenyl]methyl}(1-methylpiperidin-4-yl)amine]	< 30
C=CCCCOc1cccc(C(NC2CCN(C)CC2)c2nc3ccccc3[nH]2)c1 (centres unmarked) [Example 135, [(1H-benzimidazol-2-yl)(3-pent-4-enyloxyphenyl)methyl](1-methylpiperidin-4-yl)amine]	< 300
CN1CCC(OC(c2cccc(N3CCOCC3)c2)c2nc3ccccc3s2)CC1 (centres unmarked) [Example 243, 2-[(1-methylpiperidin-4-yloxy)(3-morpholin-4-yl-phenyl)methyl]benzothiazole]	< 300
CCSc1cc(C(OC2CCN(C)CC2)c2nc3ccccc3[nH]2)ccc1C (centres unmarked) [Example 274, 2-[(3-ethylsulfanyl-4-methylphenyl)(1-methylpiperidin-4-yloxy)methyl]-1H-benzimidazole]	< 300
CN1CCC(OC(c2nc3ccccc3[nH]2)c2cc(C(F)(F)F)ccc2F)CC1 (centres unmarked) [Example 498]	< 300

same assay, conditions: human H4 receptor; evaluated in the GTPγ[35S] assay or in the [3H]histamine binding assay (not stated which per compound); Ki or IC50 class

SMILES	Ki or IC50 activity class [nM]
CN1CCC(OC(c2cccc(I)c2)c2nc3ccccc3s2)CC1 (single isomer, unassigned) [Example 118, 2-[(3-iodophenyl)(1-methylpiperidin-4-yloxy)methyl]benzothiazole]	< 30
CN1CCC(OC(c2cccc(N3CCC(F)C3)c2)c2nc3ccccc3s2)CC1 (centres unmarked) [Example 454]	< 30
